Experimental data reported in patent US7468388B2, “Dimeric compounds and their use as anti-viral agents” (priority 2001, dated 2008).
Converted amounts (≈) assume the structure as drawn.

What was measured:
B/Harbin/7/95 BVLV008 = assay: Plaque reduction assay (PRA) in MDCK cells; assay type: cell-based; conditions: Influenza B virus, read-out: EC50 PRA B/Harb*
Influenza A/Sydney/5/97 = assay: Cytopathic effect (CPE) assay in MDCK cells, MTT readout; assay type: cell-based; conditions: concentration that inhibited CPE by 50%, up to 72 hours
[1] = system: A/Panama/2007/99 BVLV008 (H3N2); assay: Plaque reduction assay (PRA) in MDCK cells; assay type: cell-based; conditions: reduces plaque numbers by 50%
A/W SN/33 BVLV09 (H1N1) = assay: Plaque reduction assay (PRA) in MDCK cells; assay type: cell-based, influenza A (H1N1); conditions: reduces plaque numbers by 50%
[2] = system: A/New Caledonia/20/99 BVLV008 (H1N1); assay: Plaque reduction assay (PRA) in MDCK cells; assay type: cell-based; conditions: reduces plaque numbers by 50%
[3] = system: B/Yamaneshl/166/98 BVLV007; assay: Plaque reduction assay (PRA) in MDCK cells; assay type: cell-based; conditions: Influenza B virus, read-out: EC50 PRA B/Yam*, reduces plaque numbers by 50%, MDCK cells

CC(=O)N[C@@H]1C(N=C(N)N)C=C(C(=O)O)O[C@H]1[C@H](O)[C@H](O)CO (single isomer, unassigned) [Compound A, 4-guanidino-2-deoxy-2,3-dehydro-N-acetylneuraminic acid]
EC50 (B/Harbin/7/95 BVLV008): 0.00019 µg/mL (≈ 0.000572 µM)
ID50 A/Sydney/5/97+ (Influenza A/Sydney/5/97): 0.023 ± 0.024 µg/mL (≈ 0.0692 µM)
EC50 PRA A/Pan* [1]: 0.003 µg/mL (≈ 0.00903 µM)
EC50 PRA A/W SN* (A/W SN/33 BVLV09 (H1N1)): > 0.1 µg/mL
EC50 PRA A/New* [2]: 0.00023 µg/mL (≈ 0.000692 µM)

NC12CC3CC(CC(C3)C1)C2 [Amantadine]
EC50 [3]: 2.08 µg/mL (≈ 13.8 µM)
